Test results published in patent US9999616B2 (ZENITH EPIGENETICS LTD., priority 2013, dated 2018).

Columns and labels:
[1] = tested on: Bcl2 and c-myc gene expression; test: Evaluation of target engagement: Bcl2 and c-myc gene expression in MV4-11 and MM1.s xenograft tumors; format: in vivo, mouse; conditions: oral dose, tumors harvested 3, 6, 12, 24 hrs post dose for Bcl2 and c-myc gene expression as PD biomarkers
Protocol: MV4-11 and MM1.s cells (ATCC) are grown under standard cell culture conditions and (NCr) nu/nu fisol strain of female mice age 6-7 weeks are injected with 5×10^6 cells/animal in 100 μL PBS+100 μL Matrigel in the lower left abdominal flank. By approximately day 28 after MV4-11 and MM1.s cells injection, mice are randomized based on tumor volume (L×W×H)/2) of average ˜500 mm^3. Mice are dosed orally with compound in EA006 formulation at 10 mL/kg body weight dose volume and tumors harvested 3, 6, 12, 24 hrs post dose for Bcl2 and c-myc gene expression analysis as PD biomarkers.

[2] = tested on: IL-6 and IL-17 and MCP-1 cytokines; test: In vivo efficacy in mouse endotoxemia model; conditions: C57/Bl6 mice, 75 mg/kg oral, LPS 0.5 mg/kg i.p.
Protocol: Sub lethal doses of Endotoxin (E. Coli bacterial lipopolysaccharide) are administered to animals to produce a generalized inflammatory response which is monitored by increases in secreted cytokines. Compounds are administered to C57/Bl6 mice at T=4 hours orally at 75 mg/kg dose to evaluate inhibition in IL-6 and IL-17 and MCP-1 cytokines post 3-h challenge with lipopolysaccharide (LPS) at T=0 hours at 0.5 mg/kg dose intraperitoneally.

Cc1noc(C)c1-c1cc(-c2c(C)noc2C)c2nc[nH]c2c1 [Example Compound 1, 4,4′-(1H-benzo[d]imidazole-4,6-diyl)bis(3,5-dimethylisoxazole)]
In vivo activity [1]: Active | In vivo activity [2]: Active
